For the assay, the target named is T1, human cannabinoid CB2 receptor (Homo sapiens, UniProt P34972).
T1 construct: expressed in transfected cells; host or cells: Saccharomyces cerevisiae strain MMY23
As to the kind of experiment: Cannabinoid CB2 receptor agonist activity, yeast reporter assay (FDGlu fluorescence).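 On Emax: 100% equals maximal response of reference agonist HU210.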 Type of assay: cell-based. The settings on record: for Emax: read-out: efficacy value (Emax) at the cloned human cannabinoid CB2 receptor. (In a reporter assay the amount or activity of a reporter protein is the signal.)

pEC50: −log10 of the molar value.

T1 sequence (P34972 whole entry): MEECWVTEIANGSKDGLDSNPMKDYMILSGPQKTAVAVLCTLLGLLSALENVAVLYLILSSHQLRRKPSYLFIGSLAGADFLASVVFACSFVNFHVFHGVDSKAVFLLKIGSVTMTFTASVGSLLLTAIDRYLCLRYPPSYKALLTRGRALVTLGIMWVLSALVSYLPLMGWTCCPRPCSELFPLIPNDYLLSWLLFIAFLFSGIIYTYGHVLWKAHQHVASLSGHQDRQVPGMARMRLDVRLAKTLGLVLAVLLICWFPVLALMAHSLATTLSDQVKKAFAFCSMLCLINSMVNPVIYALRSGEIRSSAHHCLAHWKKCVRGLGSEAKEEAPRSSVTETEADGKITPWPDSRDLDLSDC

As a reminder, the pEC50 is the EC50 on a negative log10 scale, so that one unit is a factor of ten. The low end stands for a high EC50, the high end for a low EC50. One may read the Emax as the size of the effect at its maximum, as opposed to the concentration needed. Take `CC(C)c1cc(Nc2cccc(OC(F)(F)F)c2)ncc1C(=O)NCC1CCC1` [Example 224, N-Cyclobutylmethyl-4-isopropyl-6-(3-trifluoromethoxy-phenylamino)-nicotinamide]: the pEC50 is > 6.52 and the Emax was > 50%.
Taken in the same sequence, the figures for `CC(C)c1cc(Nc2ccc(C#N)cc2F)ncc1C(=O)NCC1CCC1` [Example 260, 6-(4-Cyano-2-fluoro-phenylamino)-N-cyclobutylmethyl-4-isopropyl-nicotinamide] were > 6.52 and > 50%.
On the same counts, the results for `O=C(NCC1CCC1)c1cnc(Nc2ccc(F)cc2Cl)cc1C(F)(F)F` [Example 163, N-Cyclobutylmethyl-6-(2-Chloro-4-fluoro-phenyl-amino)-4-trifluoromethyl-nicotinamide] are > 6.52 and > 50%.
Consider `CC(C)c1cc(Nc2cccc(F)c2)ncc1C(=O)NCC1CCCC1` [Example 22, N-Cyclopentylmethyl-6-(3-fluorophenylamino)-4-isopropyl-nicotinamide], for which the pEC50 is > 6.52 and the Emax was > 50%.
Taken in the same sequence, the figures for `Cc1ccc(C(F)(F)F)cc1Nc1cc(C(C)C)c(C(=O)NCC2CCOCC2)cn1` [Example 88, 4-lsopropyl-6-(2-methyl-5-trifluoromethyl-phenylamino)-N-(tetrahydro-pyran-4-ylmethyl)-nicotinamide] were > 6.52 and > 50%.
Regarding `CC(C)c1cc(Nc2cccc(OC(F)(F)F)c2)ncc1C(=O)NCC1CCOCC1` [Example 20, 4-Isopropyl-N-(tetrahydro-pyran-4-ylmethyl)-6-(3-trifluoromethoxy-phenylamino) nicotinamide], the pEC50 is > 6.52 and the Emax is > 50%.
Consider `CC(C)c1cc(Nc2ccc(Br)c(F)c2)ncc1C(=O)NCC1CCS(=O)(=O)C1` (stereo not shown) [Example 279, 6-(4-Bromo-3-fluoro-phenylamino)-N-(1,1-dioxo-tetrahydro-1/^6-thiophen-3-ylmethyl)-4-isopropyl-nicotinamide], for which the negative-log EC50 (pEC50) was > 6.52 and the Emax was > 50%.
Regarding `CC(C)CNC(=O)c1cnc(Nc2ccc(Cl)cc2Cl)cc1C(C)C` [Example 273, 6-(2,4-Dichloro-phenylamtno)-N-isobutyl-4-isopropyl-nicotinamide], the pEC50 is > 6.52 and the Emax is > 50%.
As for `CC(C)c1cc(Nc2ccc(OC(F)(F)F)cc2Br)ncc1C(=O)NCC1CCC1` [Example 291, 6-(2-Bromo-4-trifluoromethoxy-phenylamino)-N-cyclobutylmethyl-4-isopropyl-nicotinamide], the Emax was > 50%.
For `CC(C)c1cc(Nc2cccc(Cl)c2)ncc1C(=O)NCC1(O)CCCCC1` [Example 54, 6-(3-Chloro-phenylamino)-N-(1-hydroxy-cyclohexylmethyl)-4-isopropyl-nicotinamide], the pEC50 is > 6.52 and the Emax was > 50%.
On the same counts, the results for `CC(C)c1cc(Nc2cccc(C(F)(F)F)c2F)ncc1C(=O)NCC1CCCC1` [Example 245, 6-(2-Fluoro-3-trifluoromethyl-phenylamino)-N-cyclopentylmethyl-4-isopropyl-nicotinamide] are > 6.52 and > 50%.
Taken in the same sequence, the figures for `O=C(NC1CCC1)c1cnc(Nc2ccc(Cl)c(Cl)c2)cc1C(F)(F)F` [Example 154, N-Cyclobutyl-6-(3,4-dichloro-phenylamino)-4-trifluoro-methyl-nicotinamide] were > 6.52 and > 50%.
For the compound `O=C(NCC1CCS(=O)(=O)C1)c1cnc(Nc2cccc(F)c2)cc1C(F)(F)F` (stereo not shown) [Example 133, N-(1,1-Dioxo-tetrahydro-thiophen-3-ylmethyl)-6-(3-fluoro-phenylamino)-4-trifluoromethyl-nicotinamide], the pEC50 is > 6.52 and the Emax was > 50%.
Taken in the same sequence, the figures for `CC(C)c1cc(Nc2cccc(Cl)c2Cl)ncc1C(=O)NCC1CCC1` [Example 252, N-Cyclobutylmethyl-6-(2,3-dichloro-phenylamino)-4-isopropyl-nicotinamide] were > 6.52 and > 50%.
Taken in the same sequence, the figures for `Cc1c(Cl)cccc1Nc1cc(C(C)C)c(C(=O)NCC2CCOCC2)cn1` [Example 241, 6-(3-Chloro-2-methyl-phenylamino)-4-isopropyl-N-(tetrahydro-pyran-4-ylmethyl)-nicotinamide] were > 6.52 and > 50%.
In the case of `Cc1cc(C#N)ccc1Nc1cc(C(C)C)c(C(=O)NCC2CCOCC2)cn1` [Example 220, 6-(4-Cyano-2-methyl-phenylamino)-4-isopropyl-N-(tetrahydro-pyran-4-ylmethyl)-nicotinamide], the pEC50 was > 6.52 and the Emax was > 50%.
With `Cc1cccc(Nc2cc(C(C)C)c(C(=O)NCC3CCOCC3)cn2)c1C#N` [Example 303, 6-(2-Cyano-3-methyl-phenylamino)-4-isopropyl-N-(tetrahydropyran-4-ylmethyl)-nicotinamide], the Emax is > 50%.
`CC(C)c1cc(Nc2cccc(Cl)c2)ncc1C(=O)NCC1CCS(=O)(=O)C1` (stereo not shown) [Example 223, 6-(3-Chloro-phenylamino)-N-(1,1-dioxo-tetrahydro-1/^6-thiophen-3-ylmethyl)-4-isopropyl-nicotinamide]: the pEC50 was > 6.52 and the Emax was > 50%.
Taken in the same sequence, the figures for `Cc1cc(Nc2cc(C(C)C)c(C(=O)NCC3CCOCC3)cn2)ccc1Br` [Example 86, 6-(4-Bromo-3-methyl-phenylamino)-4-isopropyl-N-(tetrahydro-pyran-4-ylmethyl)-nicotinamide] were > 6.52 and > 50%.
`CC(C)c1cc(Nc2ccc(C#N)cc2F)ncc1C(=O)NCC1CCOCC1` [Example 97, 6-(4-Cyano-2-fluoro-phenylamino)-4-isopropyl-N-(tetrahydro-pyran-4-ylmethyl)-nicotinamide]: the Emax is > 50%.
On to `O=C(NCC1CCCC1)c1cnc(Nc2ccc(Cl)cc2F)cc1C(F)(F)F` [Example 161, N-Cyclopentylmethyl-6-(2-fluoro-4-chloro-phenyl-amino)-4-trifluoromethyl-nicotinamide], for which the negative logarithm of the EC50 (pEC50) was > 6.52 and the Emax was > 50%.
On the same counts, the results for `O=C(NCC1CCCCCC1)c1cnc(Nc2cccc(F)c2)cc1C(F)(F)F` [Example 125, N-Cycloheptylmethyl-6-(3-fluoro-phenylamino)-4-tri-fluoromethyl-nicotinamide] are > 6.52 and > 50%.
On the same counts, the results for `COc1cccc(Nc2cc(C(C)C)c(C(=O)NCC3CCCCC3)cn2)c1` [Example 9, N-Cyclohexylmethyl-4-isopropyl-6-(3-methoxy-phenylamino)-nicotinamide] are > 6.52 and > 50%.
On the same counts, the results for `Cc1cccc(Nc2cc(C(C)C)c(C(=O)NCC3CCCCC3)cn2)c1` [Example 13, N-Cyclohexylmethyl-4-isopropyl-6-m-tolytamino-nicotinamide] are > 6.52 and > 50%.
For the compound `CC(C)c1cc(Nc2cccc(Cl)c2)ncc1C(=O)NC1CCOCC1` [Example 58, 6-(3-Chloro-phenylamino)-4-isopropyl-N-(tetrahydro-pyran-4-yl)-nicotinamide], the Emax is > 50%.
In the case of `CC(C)c1nc(Nc2ccc(Cl)cc2Cl)ccc1C(=O)NCC1CCOCC1` [Example 214, 6-(2,4-Dichloro-phenylamino)-N-(tetrahydro-pyran-4-ylmethyl)-2-isopropyl-nicotinamide], the pEC50 is > 6.52 and the Emax was > 50%.
On the same counts, the results for `CC(C)CNC(=O)c1cnc(Nc2cc(F)ccc2Cl)cc1C(C)C` [Example 274, 6-(2-Chloro-5-fluoro-phenylamino)-N-isobutyl-4-isopropyl-nicotinamide] are > 6.52 and > 50%.
On the same counts, the results for `O=C(NCC1CC1)c1cnc(Nc2ccc(Cl)cc2Cl)cc1C(F)(F)F` [Example 144, N-Cyclopropylmethyl-6-(2,4-dichloro-phenylamino)-4-tri-fluoromethyl-nicotinamide] are > 6.52 and > 50%.
On the same counts, the results for `CC(C)c1cc(Nc2cc(Cl)ccc2F)ncc1C(=O)NCC1CCC1` [Example 266, 6-(5-Chloro-2-fluoro-phenylamino)-N-cyclobutylmethyl-4-isopropyl-nicotinamide] are > 6.52 and > 50%.
Consider `CC(C)c1cc(Nc2ccc(F)cc2Cl)ncc1C(=O)NCC1CCOCC1` [Example 243, 6-(2-Chloro-4-fluoro-phenylamino)-4-isopropyl-N-(tetrahydro-pyran-4-ylmethyl)-nicotinamide], for which the pEC50 is > 6.52 and the Emax is > 50%.
Taken in the same sequence, the figures for `O=C(NC1CCC1)c1cnc(Nc2cccc(F)c2)cc1C(F)(F)F` [Example 127, N-Cyclobutyl-6-(3-fluoro-phenylamino)-4-trifluoro-methyl-nicotinamide] were > 6.52 and > 50%.
Taken in the same sequence, the figures for `O=C(NCC1CCOCC1)c1cnc(Nc2ccc(F)cc2Cl)cc1C(F)(F)F` [Example 165, N-(Tetrahydropyran-4-yl-methyl)-6-(2-chloro-4-fluoro-phenylamino)-4-trifluoro-methyl-nicotinamide] were > 6.52 and > 50%.
Taken in the same sequence, the figures for `CC(C)c1cc(Nc2ccc(Cl)c(Cl)c2)ncc1C(=O)NCC1CCCC1` [Example 32] were > 6.52 and > 50%.
With `O=C(NCC1CCCCCC1)c1cnc(Nc2ccc(Cl)cc2Cl)cc1C(F)(F)F` [Example 139, N-Cycloheptylmethyl-6-(2,4-dichloro-phenylamino)-4-tri-fluoromethyl-nicotinamide], the pEC50 was > 6.52 and the Emax is > 50%.
On the same counts, the results for `CC(C)c1cc(Nc2cccc(OC(F)(F)F)c2)ncc1C(=O)NCC1CCCC1` [Example 25, N-Cyclopentylmethyl-4-isopropyl-6-(3-trifluoromethoxy-phenylamino)-nicotinamide] are > 6.52 and > 50%.
For the compound `CC(C)c1cc(Nc2cccc(Cl)c2)ncc1C(=O)NCC1CCOCC1` [Example 7, 6-(3-Chloro-phenyl-amino)-4-isopropyl-N-(tetrahydro-pyran-4-ylmethyl)-nicotinamide], the Emax is > 50%.

Values taken from patent US20060240048A1 (priority 2002, published 2006).
